Data reported in publication PMC8879702, “Discovery of Small Molecule Activators of Chemokine Receptor CXCR4 That Improve Diabetic Wound Healing” (International Journal of Molecular Sciences, 2022).

What was measured:
Type in all cases: cell-based
CXCR4 receptor [1] = biological target: T1, CXCR4 receptor (Homo sapiens, UniProt P61073); experiment: primary 1536 w β-arrestin recruitment assay (CXCR4-bla U2OS cells, SDF-1α from R&D systems); parameters: host or cells: Tango CXCR4-bla U2OS cells; settings: for Emax: U2OS
T1 sequence (P61073 whole entry): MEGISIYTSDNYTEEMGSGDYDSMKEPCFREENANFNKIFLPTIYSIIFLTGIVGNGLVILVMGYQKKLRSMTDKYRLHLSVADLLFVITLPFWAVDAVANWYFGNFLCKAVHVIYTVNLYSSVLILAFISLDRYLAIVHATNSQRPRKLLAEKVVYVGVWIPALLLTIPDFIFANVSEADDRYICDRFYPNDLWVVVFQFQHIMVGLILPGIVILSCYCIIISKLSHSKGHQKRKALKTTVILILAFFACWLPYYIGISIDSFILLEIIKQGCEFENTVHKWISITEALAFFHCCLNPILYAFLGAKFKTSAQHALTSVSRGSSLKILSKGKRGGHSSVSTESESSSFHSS
Experimental: In our effort to identify CXCR4 activators from the NIH Molecular Library Small Molecule Repository (MLSMR), we developed a primary screening assay to measure β-arrestin recruitment to the activated G-protein coupled receptor (GPCR) by a Florescence Resonance Energy Transfer (FRET) in U2OS cells, overexpressing the CXCR4 receptor engineered with a β-lactamase (bla) reporter system. CXCR4-bla cells plated in 1536 w were stimulated in the presence of 10 µM compound concentration. […] Using this approach, we successfully screened the NIH MLSMR of 370,620 compounds (Figure 1A,B) and identified 303 hits (hit rate = 0.08%). […] These compounds were graded according to activity and structure, resulting in 86 compounds that met the criteria as potential CXCR4 agonists for further characterization (Figure 1B). The workflow for high-throughput screening and this study is illustrated in Figure 1B.
Chemical stability, synthetic tractability, solubility and complete dose response and potency criteria led to the prioritization of the 5-aryl-2-cyclopropyl oxazole scaffold, represented by primary hit Compound 2 (Table 1). The early structure–activity relationship was established around the 5-aryl-2-cyclopropyl oxazole core with commercially available analogs with diverse substituents in the sulfonanilide ring of the scaffold. […] Keeping the 2-OMe substituent constant, we screened a small set of electron withdrawing and electron rich substituents at the 5-position of the anilide ring (entries 16–19). […] The analytical data for UCUF-728 is shown in Supplemental Figures S1–S4.

CXCR4 receptor [2] = biological target: T1, CXCR4 receptor; experiment: cAMP signaling assay, forskolin-induced, PathHunter CHO-K1 CXCR4 cells
Experimental: The CXCR4 receptor is a G-protein coupled receptor (GPCR) coupled to the Gi class, whose primary role is inhibition of adenylate cyclase. We tested the ability of UCUF-728 to induce a Gi-mediated cAMP-inhibitory cellular response. […] (Figure 2B).
Forskolin at final concentration of 0.5 mM was added to all wells using the TECAN dispenser. […] of PathHunter CHO-K1 CXCR4 cells (DiscoverX, Fremont, CA, USA) were added to compounds at 3000 cells/well, centrifuged at 1000 rpm for 30 s and incubated for 30 min at room temperature. DMSO (Sigma Aldrich, St. Louis, MO, USA) was normalized to 0.5%. […] of 4X Eu-cAMP tracer working solution were added to all wells, followed by addition of 5 μL of 4X Ulight-anti-cAMP working solution to all wells. Plates were centrifuged at 1000 rpm for 1 min and incubated for 1 h at room temperature, then read using CLARIOstar Plus (BMG LABTECH Inc., Cary, NC, USA) Lance CAMP protocol.

CEM-CCRF cells = experiment: 96 wells transwell migration assay in CEM human lymphoblast cells
Source text: Thus, to confirm CXCR4 functional activity, we evaluated UCUF-728 in a 96 wells transwell migration assay in CEM human lymphoblast cells. […] (Supplemental Figure S7). From the analog structure–activity relationship studies and characterization studies in the chemotaxis assay, cAMP signaling and CXCR4 binding assay, we identified UCUF-728 as a potent and functionally selective CXCR4 receptor modulator.
CEM-CCRF (ATCC CCL-119) were suspended in RPMI 1640 (Corning; 10-040-CV) at 5.0 × 10^5 cells/mL and allowed to incubate in cell culture incubator at 37 °C with 5% CO2 for one hour. […] Following 1 h cell incubation and compound dispensing, 150 μL of RPMI 1640 supplemented with 2% Fetal Bovine Serum was added to each well of the compound receiver tray, and 50 μL of 5 × 10^5 cells/mL cell suspension in RPMI were added to each well of the top filter plate. Plates were reassembled and placed in a cell culture incubator at 37 °C with 5% CO2 for three hours. After incubation, Multi-Screen plate was disassembled and 100 μL of solution was collected from compound receiver tray and transferred to 96 well luminescent plate and an equal volume of ATPLite 1step luminescence reagent (Perkin Elmer, Waltham, MA, USA) was added to each well. Luminescence was measured using the CLARIOstar Plus (BMG LABTECH Inc., Cary, NC, USA).

| Molecule | EC50 (CXCR4 receptor [1]) | Emax (CXCR4 receptor [1]) | other results |
| --- | --- | --- | --- |
| O=S(=O)(Nc1ccccc1F)c1ccc(-c2cnc(C3CC3)o2)cc1 [Compound 7] | > 80 µM | – | – |
| Cc1ccc(NS(=O)(=O)c2ccc(-c3cnc(C4CC4)o3)cc2)c(C)c1 [Compound 12] | 3.4 µM | 38% | – |
| O=S(=O)(Nc1ccccc1)c1ccc(-c2cnc(C3CC3)o2)cc1 [Compound 1] | > 80 µM | – | – |
| COc1ccc(C)cc1NS(=O)(=O)c1ccc(-c2cnc(C3CC3)o2)cc1 [Compound 18] | 0.9 µM | 48% | – |
| CCOc1ccc(NS(=O)(=O)c2ccc(-c3cnc(C4CC4)o3)cc2)cc1 [Compound 9] | 44.3 µM | 38% | – |
| CCc1ccccc1NS(=O)(=O)c1ccc(-c2cnc(C3CC3)o2)cc1 [Compound 3] | 2.6 µM | 38% | – |
| COc1ccc(F)cc1NS(=O)(=O)c1ccc(-c2cnc(C3CC3)o2)cc1 [Compound 17] | 7.3 µM | 42% | – |
| CCOc1ccccc1NS(=O)(=O)c1ccc(-c2cnc(C3CC3)o2)cc1 [Compound 5] | 1 µM | 46% | – |
| COc1ccc(NS(=O)(=O)c2ccc(-c3cnc(C4CC4)o3)cc2)cc1OC [Compound 20] | > 80 µM | – | – |
| Cc1ccccc1NS(=O)(=O)c1ccc(-c2cnc(C3CC3)o2)cc1 [Compound 2] | 5.9 µM | 27% | – |
| COc1ccccc1NS(=O)(=O)c1ccc(-c2cnc(C3CC3)o2)cc1 [Compound 4] | 6.1 µM | 45% | – |
| Cc1ccc(C)c(NS(=O)(=O)c2ccc(-c3cnc(C4CC4)o3)cc2)c1 [Compound 13] | 0.7 µM | 42% | – |
| COc1cc(NS(=O)(=O)c2ccc(-c3cnc(C4CC4)o3)cc2)cc(OC)c1 [Compound 21] | 5.6 µM | 48% | – |
| Cc1ccc(NS(=O)(=O)c2ccc(-c3cnc(C4CC4)o3)cc2)cc1C [Compound 11] | > 10 µM | – | – |
| Cc1cc(C)cc(NS(=O)(=O)c2ccc(-c3cnc(C4CC4)o3)cc2)c1 [Compound 15] | 3.1 µM | 39% | – |
| COc1cccc(NS(=O)(=O)c2ccc(-c3cnc(C4CC4)o3)cc2)c1 [Compound 8] | > 80 µM | – | – |
| c1cc(CN2CCCNCCNCCCNCC2)ccc1CN1CCCNCCNCCCNCC1 [AMD3100, reference compound] | – | – | block of SDF-1α inhibition of forskolin-induced cAMP (CXCR4 receptor [2]; maximal response at 40 nM SDF-1α): dose-dependently blocked; IC50 (CEM-CCRF cells; Homo sapiens, normalized to media only and 6nM SDF-1a, read-out: logIC50 inhibition of migration (converted)): 0.0316 µM |
| O=S(=O)(Nc1ccccc1Cl)c1ccc(-c2cnc(C3CC3)o2)cc1 [Compound 6] | 22 µM | 35% | – |
| COc1ccc(Cl)cc1NS(=O)(=O)c1ccc(-c2cnc(C3CC3)o2)cc1 [Compound 16] | 1.65 µM | 47% | – |
| Cc1cccc(C)c1NS(=O)(=O)c1ccc(-c2cnc(C3CC3)o2)cc1 [Compound 14] | 0.6 µM | 45% | – |
| Cc1cccc(NS(=O)(=O)c2ccc(-c3cnc(C4CC4)o3)cc2)c1C [Compound 10] | 1.9 µM | 40% | – |
| SDF-1α | – | – | inhibition of forskolin-induced adenylate cyclase (cAMP signaling) (CXCR4 receptor [2]; CHO-K1 CXCR4 overexpressed cells): inhibited forskolin-induced adenylate cyclase; induction of cell migration (CEM-CCRF cells; compound in lower channel, 3 h): induced migration in the typical bell-shaped curve |
